In PubChem BioAssay (NCI):
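These data come from cells grown in 96-well plates and exposed to compound for 48 hours at five concentrations. Abbreviation: GI50, concentration required for 50% inhibition of growth. The concentration for full growth arrest is given as TGI.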

Columns and labels:
Assay in all cases: DTP human tumour cell line panel, 48 h
CAKI-1 renal = test system: CAKI-1 renal
NCI-H23 lung = test system: NCI-H23 lung
OVCAR-5 ovarian = test system: OVCAR-5 ovarian
K-562 leukemia = test system: K-562 leukemia
MCF7 breast = test system: MCF7 breast
MALME-3M melanoma = test system: MALME-3M melanoma
NCI-H522 lung = test system: NCI-H522 lung
SN12C renal = test system: SN12C renal
HCC-2998 colon = test system: HCC-2998 colon
SK-MEL-28 melanoma = test system: SK-MEL-28 melanoma

| SMILES | GI50 (CAKI-1 renal) [µM] | TGI (CAKI-1 renal) [µM] | GI50 (NCI-H23 lung) [µM] | TGI (NCI-H23 lung) [µM] | GI50 (OVCAR-5 ovarian) [µM] | TGI (OVCAR-5 ovarian) [µM] | GI50 (K-562 leukemia) [µM] | TGI (K-562 leukemia) [µM] | GI50 (MCF7 breast) [µM] | TGI (MCF7 breast) [µM] | GI50 (MALME-3M melanoma) [µM] | TGI (MALME-3M melanoma) [µM] | GI50 (NCI-H522 lung) [µM] | TGI (NCI-H522 lung) [µM] | GI50 (SN12C renal) [µM] | TGI (SN12C renal) [µM] | GI50 (HCC-2998 colon) [µM] | TGI (HCC-2998 colon) [µM] | GI50 (SK-MEL-28 melanoma) [µM] | TGI (SK-MEL-28 melanoma) [µM] |
| --- | --- | --- | --- | --- | --- | --- | --- | --- | --- | --- | --- | --- | --- | --- | --- | --- | --- | --- | --- | --- |
| C#C[C@]1(O)CC[C@H]2[C@@H]3CC=C4c5sc(Nc6cc(F)ccc6F)nc5CC[C@]4(C)[C@H]3CC[C@@]21C | 1.38 | 2.79 | 1.78 | 4.38 | 1.93 | 5.18 | 1.96 | > 100 | 1.5 | 3.26 | 1.4 | 2.97 | 2.08 | 5.6 | 2.15 | 5.23 | 1.65 | 3.19 | 1.09 | 2.34 |
| COC(C)(C)[C@@H](O)[C@H](O)C[C@H](C)C1=C2CC[C@@H]3[C@@]4(C)CC[C@@H](OC(C)=O)C(C)(C)[C@@H]4C[C@@H](OC4OC(COC(C)=O)C(O)C(O)C4O)[C@@]3(C)[C@]2(C)CC1 (some centres not stated) | 4.1 | 14.8 | 14.4 | 27.4 | 14.9 | 28.1 | 6.06 | 22.3 | 2.62 | 12.4 | 15.2 | 29.4 | 12.2 | 25.2 | 13.4 | 26.4 | 4 | 13.4 | 11.7 | 24.2 |
| Fc1ccc(-c2ncn(C3CCNCC3)c2-c2ccnc(Oc3ccc4c(c3)OCO4)n2)cc1 | > 20.9 | > 25 | > 25 | > 25 | > 25 | > 25 | > 23.1 | > 25 | 9.14 | > 25 | 21.4 | > 25 | > 25 | > 25 | 16.7 | > 25 | 11.9 | > 25 | 8.34 | > 23.1 |
| Nc1ccn(C2CC(F)C(CO)O2)c(=O)n1 (configuration not stated) | > 100 | > 100 | > 100 | > 100 | > 100 | > 100 | > 100 | > 100 | > 100 | > 100 | > 100 | > 100 | > 100 | > 100 | > 100 | > 100 | > 100 | > 100 | > 100 | > 100 |
| COc1ccc2c(c1)nc(NNC(=O)c1cnccn1)c1cccn12 | 0.659 | 4.81 | 0.64 | 5.24 | 0.962 | 5.11 | 0.393 | > 100 | 0.266 | 1.86 | 1.06 | 2.93 | 0.393 | 5.37 | 0.408 | 3.37 | 1.05 | 2.43 | 0.444 | 3.52 |
| NC(=N\N=C/c1ccc(O)cc1)/C(N)=N\N=C/c1ccc(O)cc1 | 2.06 | > 100 | > 100 | > 100 | > 100 | > 100 | 0.782 | > 100 | > 100 | > 100 | > 100 | > 100 | 0.52 | > 100 | > 31 | > 100 | 8.56 | > 100 | > 100 | > 100 |
| C=CC(=O)N1CCC(c2ccc(C(N)=O)c(-c3ccc(Oc4ccccc4)cc3)n2)CC1 | 15.8 | > 100 | 34.6 | > 100 | > 100 | > 100 | 26.9 | > 100 | 22.7 | > 100 | 36.1 | > 100 | 11.2 | 60.3 | 28.2 | > 100 | 58.1 | > 100 | 51.5 | > 100 |
| CN(C)c1ccc(Nc2c3ccccc3nc3ccccc23)cc1 | 0.486 | 2.33 | 1.1 | 2.92 | 1.54 | 6.72 | 0.847 | 7.83 | 0.471 | 3.44 | 1.2 | 3.03 | 0.685 | 2.52 | 1.03 | 6.76 | 1.41 | 3.93 | 1.36 | 2.84 |
| CCOc1ccc2c(-c3ccnc(Nc4cc(OC)cc(C(F)(F)F)c4)n3)cnn2n1 | > 10.3 | > 25 | > 21.9 | > 25 | > 25 | > 25 | 1.97 | > 25 | 1.13 | > 25 | > 25 | > 25 | 1.85 | > 10.9 | > 25 | > 25 | > 25 | > 25 | > 23 | > 25 |
| Cc1ccc2nc3ccccc3c(NCc3ccc(Cl)cc3)c2c1 | 4.89 | 11 | 5.55 | 12 | 4.67 | 11.1 | 1.51 | 5.28 | 1.94 | 8.82 | 5.85 | 12.5 | 5.85 | 14.6 | 5.09 | 12 | 1.02 | 2.02 | 6.42 | 13.1 |
| CCCn1c2c(c3c(O)cccc31)C(=O)c1ccccc1-2 | 20.2 | 61.9 | 11.5 | > 100 | 3.72 | > 100 | > 100 | > 100 | 58 | > 100 | 64.6 | > 100 | 23 | > 100 | 21.9 | 98.5 | 9.72 | > 100 | 10.4 | 39.1 |
| O=C(NCCN1CCOCC1)OCc1nc2nc(Cl)nc(N3CCOCC3)c2[nH]1 | 3.07 | > 100 | 3.56 | > 100 | 4.42 | > 100 | 2.43 | > 100 | 2.02 | > 100 | 4.41 | > 100 | 1.11 | > 100 | 2.16 | > 100 | 3.77 | > 100 | > 100 | > 100 |
| COC(=O)c1c2c(c(C)[n+]([O-])c1C)C(=O)C=C(NCc1ccccc1)C2=O | 1.09 | 3.1 | 0.632 | 2.46 | 1.35 | 2.7 | 0.418 | 3.05 | 0.26 | 0.892 | 0.147 | 0.353 | 1.33 | 3.25 | 0.356 | 1.39 | 0.432 | 1.7 | 1.63 | 3.8 |
| C[C@H]1[C@H](C)N1CC(O)Cn1ccnc1[N+](=O)[O-] (some centres not stated) | – | > 100 | – | > 100 | – | > 100 | – | > 100 | – | > 100 | – | > 100 | – | > 100 | – | > 100 | – | > 100 | – | > 100 |
| COc1ccc([C@H](CC(=O)O)N2CCN(CCCc3ccc4c(n3)NCCC4)C2=O)cn1 | 2.71 | > 100 | 0.892 | 4.07 | 0.403 | > 100 | > 80.8 | > 100 | 0.247 | 0.902 | > 100 | > 100 | 0.114 | 0.267 | 0.515 | – | > 100 | > 100 | > 28.7 | > 100 |
| CCCCNNC(=O)c1ccc(Br)cc1 | 2.88 | > 27 | 6.77 | > 50 | 1.01 | > 15.3 | 2.02 | > 50 | 2.06 | > 50 | 1.7 | > 50 | 1.27 | > 22 | 15.4 | > 50 | 4.35 | 24 | 1.55 | > 35.3 |
| CCC(=O)N1C/C(=C/c2ccc(Cl)cc2)C(=O)/C(=C/c2ccc(Cl)cc2)C1 | 2.25 | 7.85 | 1.44 | 3.74 | 1.48 | 3 | 0.317 | – | 0.324 | 1.36 | 2.06 | 4.08 | 0.973 | 2.4 | 0.711 | 2.05 | 0.735 | 1.82 | 1.71 | 3.33 |
| O=C(CCN1CCCC1)Nc1ccc2c(NCc3ccccc3)c3ccccc3nc2c1 | 1.53 | 6.18 | 0.392 | 1.57 | 0.424 | 2.06 | 0.385 | 1.41 | 0.286 | 1.18 | 0.605 | 1.99 | 0.298 | 1.34 | 0.332 | 1.52 | 0.466 | 2.02 | 1.17 | 2.49 |
| CN(C)C(=O)Nc1nc2cc(Cl)c(Cl)cc2[nH]1 | 0.525 | > 23.5 | 2.07 | > 66.5 | 19.8 | > 100 | 0.41 | > 33.8 | 0.367 | > 100 | 3.22 | 87.3 | 0.38 | 4.14 | 1.36 | > 100 | 2.5 | > 47.1 | 8.63 | > 100 |
| COc1c(C(C)=O)c(OCCCCOc2c(C(C)=O)c(OC)c3ccoc3c2OC)c(OC)c2occc12 | 3.3 | > 100 | 4.64 | > 100 | > 100 | > 100 | 5.45 | > 100 | 3.11 | > 100 | 2.31 | 8.3 | 2.63 | > 100 | > 100 | > 100 | > 100 | > 100 | 2.32 | 7.05 |
| O=C1CCc2c(sc3[nH]c(=S)n(-c4cc(C(F)(F)F)cc(C(F)(F)F)c4)c(=O)c23)C1 | 0.377 | 4.54 | 0.346 | 2.24 | 0.438 | 2.19 | 0.185 | > 73.1 | 0.447 | 16.4 | 0.462 | 2.77 | 0.344 | 1.5 | 0.352 | 11.8 | 0.509 | 1.91 | 0.459 | 3.7 |
| COc1ccccc1/C=C1\COc2ccc(-c3ccccc3)cc2C1=O | 4.74 | > 100 | 4.38 | 59.3 | 5.29 | 21.1 | 4.54 | > 100 | 2.4 | – | 3.81 | 40.4 | 3.1 | > 100 | 3.17 | > 100 | 2.63 | 6.92 | 3.61 | 13.3 |
| C/C(=C\c1ccn(-c2ccccc2N)n1)[C@@H]1C[C@@H]2O[C@]2(C)CCC[C@H](C)[C@H](O)[C@@H](C)C(=O)C(C)(C)[C@@H](O)CC(=O)O1 | 0.242 | > 50 | 0.0663 | > 50 | 0.102 | > 40.9 | 0.0268 | > 50 | 0.0168 | > 50 | 0.127 | > 50 | 0.0511 | 0.386 | 0.145 | > 50 | 0.0467 | > 18.3 | 1.07 | > 50 |
| O=S(=O)(O)O | – | 1870 | – | 1580 | – | 1700 | – | 1230 | – | 1410 | – | 2050 | – | 1770 | – | 1450 | – | 2150 | – | 1700 |
| O=[N+]([O-])/C=C/c1c(Cl)cccc1Cl | – | 7.86 | – | 16.8 | – | 16.2 | – | 8.61 | – | 3.29 | – | 9.81 | – | 5.95 | – | 5.65 | – | 8.34 | – | 10.9 |
| OC1(c2ccccc2)C2CC=CC2C1(c1ccccc1)c1ccccc1 (configuration not stated) | – | 60.1 | – | > 100 | – | > 100 | – | > 100 | – | 79.4 | – | 53 | – | 32.7 | – | > 100 | – | 48.3 | – | > 100 |
